Paper PMC7340446, “Optimization of PTH/PTHrP Hybrid Peptides to Derive a Long‐Acting PTH Analog (LA‐PTH)” (JBMR Plus, 2020)
Where no end group is shown, it is not given here.

Columns and labels:
human PTHR1 = target: T1, human PTHR1 (Homo sapiens, UniProt Q03431); assay: GloSensor cAMP signaling assay in GP‐2.3 cells; format: cell-based
T1 construct: expressed in transfected cells
T1 sequence (Q03431 27-593): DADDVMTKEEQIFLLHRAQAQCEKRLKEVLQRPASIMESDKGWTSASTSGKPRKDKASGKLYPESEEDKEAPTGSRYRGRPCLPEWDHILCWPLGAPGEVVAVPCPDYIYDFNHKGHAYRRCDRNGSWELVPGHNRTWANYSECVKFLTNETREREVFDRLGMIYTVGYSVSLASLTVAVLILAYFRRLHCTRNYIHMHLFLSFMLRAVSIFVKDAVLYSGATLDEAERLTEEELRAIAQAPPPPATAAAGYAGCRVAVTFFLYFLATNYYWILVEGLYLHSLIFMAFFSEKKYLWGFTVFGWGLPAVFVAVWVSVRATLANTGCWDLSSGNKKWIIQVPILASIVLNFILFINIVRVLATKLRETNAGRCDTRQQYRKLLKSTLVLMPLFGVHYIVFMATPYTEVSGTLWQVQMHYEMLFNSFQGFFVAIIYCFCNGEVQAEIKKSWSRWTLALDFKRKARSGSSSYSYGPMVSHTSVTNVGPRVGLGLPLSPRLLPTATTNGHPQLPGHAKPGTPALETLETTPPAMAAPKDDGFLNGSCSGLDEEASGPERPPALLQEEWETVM
Experimental: GP‐2.3 cells, an HEK‐293 cell‐ (ATCC CRL‐1573) derived cell line that stably expresses the luciferase‐based pGloSensor‐22F (GloSensor) cAMP reporter plasmid (Promega Corp., […], USA) along with the human PTHR1, were cultured in DMEM (Thermo Fisher Scientific, Waltham, MA, USA) supplemented with FBS (10%). Cells were seeded into white 96‐well plates for GloSensor cAMP assays, and used for assay 2 to 3 days after the monolayer became confluent.16 UGS‐56 cells were derived from the UMR106 rat osteoblastic cell line by stably transfecting the cells to express the GloSensor‐cAMP reporter. B64 cells are a derivative of the porcine kidney cell line, LLC‐PK1 that stably expresses the human PTHR1. COS‐7 cells (ATCC CRL‐1661) were seeded into 10‐cm dishes and transiently transfected to express the human PTHR1 with or without a high‐affinity, negative‐dominant Gαs subunit; 2 days after transfection, the cells were harvested for membrane preparations.13 All transfections were performed using the Fugene HD reagent (Promega Corp.).
Changes in cAMP levels were assessed in intact GP‐2.3 or UGS‐56 cells via the (GloSensor) cAMP reporter. The intact cells in white 96‐well plates were preloaded with luciferin in CO2‐independent culture media (Thermo Fisher) for 20 min at room temperature, then treated with a test ligand diluted in the same media and placed into a Envision plate reader (PerkinElmer, Waltham, MA, USA) for an additional 30 min, during which time cAMP‐dependent luminescence was measured at 2‐min intervals (ligand‐on phase). […] For washout responses, the cells were treated as above, and after the ligand‐on phase, the plate was removed from the plate reader, the cells were rinsed with media, then fresh media containing only luciferin was added and luminescence was measured for an additional 90 min (washout phase). EC50 values were determined using the 4‐parameter sigmoidal dose–response equation in Prism 8.0 (GraphPad Software, Inc., La Jolla, CA, USA).
The cells were then removed from the plate reader, rinsed twice with media to remove unbound ligand, and then fresh media containing luciferin but lacking ligand was added and luminescence was assessed for additional 90 min (Ligand wash‐out phase). Data are means (± SEM) of four experiments, each performed in triplicate. Figure S2. […] Panels A‐C represent three separate experiments. […] Figure S3. […] Serum and urine samples obtained from the TPTX and sham control rats of the two‐week daily‐administration experiment shown in Figure 4 were analyzed by ELISA for the indicated markers. A) serum 1,25(OH)2Vitamin‐D3. B) urinary deoxypyridinoline (DpD)/Cre. C) serum FGF23. […] Serum and urine samples obtained from the TPTX and sham control rats of the two‐week daily‐administration experiment shown in Figure 4 were analyzed for total inorganic phosphorus (Pi). […] Figure S5. […] B) The same peptides were assessed at a concentration of 3 nM for the capacity to stimulate cAMP formation in HKRK‐B64 cells (LLC‐PK1 cells stably expressing the hPTHR1, cAMP measured by RIA). […] Data in A and B are means (±SEM) of three experiments, each performed in triplicate or quadruplicate. […] D) The same analogs as in C were assessed at a 3.0 nM concentration for the capacity to stimulate cAMP formation in HKRK‐B64 cells. Data are means (±SEM) of three experiments, each performed in duplicate. […] Data are means (±SEM) of duplicate determinations of a single experiment representative of three others. Click here for additional data file.

[1] = Peptide solubility in aqueous buffers of neutral pH; format: physicochemical; settings: aqueous buffers at neutral pH; approximate

Emax (human PTHR1): 105 ± 4%
Concentration at which the peptide is poorly soluble [1]: > 300 µg/mL
Sequence: AVAEIQLMHQRAKWIQDLRRRFFLHHLIAEIHTAEI [M‐PTH(1‐14)/PTHrP(15‐36), [Ala^1,3,12,Gln^10,Arg^11,Trp^14]‐PTH(1‐14)/PTHrP(15–36)]
